Reference: patent publication US11166942B2 (PRAXIS BIOTECH LLC, priority 2018, dated 2021)
Like-named read-outs stand apart in the source and are kept apart here.

How the values were obtained:
ATF4 = ATF4 expression inhibition assay (ATF4 5'UTR luciferase reporter, Tg-stressed HEK293T cells); assay type: cell-based, human; details: for inhibition at 0.1 µM: read-out: % ATF4 inhibition at 100 nM; for IC50: read-out: ATF4 inhbition IC50; for inhibition at 1 µM: read-out: % ATF4 inhibition at 1 μM
Protocol: The ATF4 reporter was prepared by fusing the human full length 5′UTR of ATF4 (NCBI Accession No. BC022088.2) upstream of the firefly luciferase coding sequence lacking the initiator methionine. The fused sequence was cloned into pLenti-EF1a-C-Myc-DDK-IRES-Puro cloning vector (Origen #PS100085) using standard methods. Virus production was carried out by using Lenti-X™ Packaging Single Shots Protocol (Clonetech #631276). Viral particles were used to transduce HEK293T cells (ATCC #CRL-3216, ATCC Manassas, Va.), which were subsequently selected with puromycin to generate stable cell line. Cells were maintained at 37° C. and 5% CO2 in DMEM-F12 (Hyclone #SH30023.02) supplemented with 10% heat-inactivated fetal bovine serum (Gibco #16000-044), 2 mM L-glutamine (Gibco #25030-081), 100 U/ml penicillin, and 100 μg/ml streptomycin (Gibco #15140-122).
HEK293T cells carrying the ATF4 luciferase reporter were plated on 96-well plates (Nunc) at 10,000 cells per well. Cells were treated two days after seeding with 100 nM thapsigargin (Tg) (Sigma-Aldrich #T9033) in the presence of 100 nM or 1 μM. For the assessment of the half-maximal inhibitory concentration (IC50) for selected compounds, dose-response assays were performed. Compounds were serially diluted using DMSO ranging from 0.1 nM to 1 μM. Cells without treatment or cells treated with Tg alone were used as controls. Assay plates containing cells were incubated for 3 hours at 37° C.
Luciferase reactions were performed using Luciferase Assay System (Promega #E1501) as specified by the manufacturer. Luminescence was read with an integration time of 1 s and a gain of 110 using a Cytation-5 multi-mode microplate reader (BioTek). Relative luminescence units were normalized to Tg treatment (0% inhibition) and untreated cells (100% inhibition) and the percentage of ATF4 inhibition was calculated.
Percentages of ATF4 inhibition after induction with Tg in the presence of 100 nM or 1 μM of certain test compounds are shown in Table 2. Also shown in Table 2 is the calculated IC50 for certain test compounds. […] Accordingly, inhibition of ATF4 expression as a result of the test compound indicates suppression of the ISR pathway.

[1] = test system: Chinese hamster ovary (CHO) cells; test: Protein translation assay (puromycin labelling, CHO cells); assay type: cell-based; details: media alone = 100%; for activity at 1 µM: Cricetulus griseus, CHO; for % Recovery of protein expression (100 nM test compound): 100 nM compound
Protocol: Chinese hamster ovary (CHO) cells were maintained at 37° C. and 5% CO2 in Dulbecco's Modified Eagle's Media (DMEM) supplemented with 10% fetal bovine serum, 2 mM L-glutamine, 100 U/ml penicillin, and 100 μg/ml streptomycin. After reaching 80% of confluence, cells were detached and seeded on 6 well plates in complete media, allowed to recover overnight and treated for 2 hours with 1 μM of the test compound (to assess protein synthesis levels in unstressed condition), or for 1 hour with 100 nM or 1 μM of the test compound and then co-treated with 300 nM Tg and 100 nM or 1 μM of the test compound (to assess the recovery of protein synthesis in a stressed condition). Cells treated with Tg alone were used as controls.
After the 2 hours treatments, media were replaced by adding 10 μg/ml puromycin (Sigma Aldrich #P8833) in complete media for 30 min. Media were removed and cells were lysed with SDS-PAGE lysis buffer. Lysates were transferred to 1.5 ml tubes and sonicated for 3 min and total protein amount were quantified using BCA Protein Assay Kit (Pierce). Equal amount of protein (30 μg) was loaded on SDS-PAGE gels. Proteins were transferred onto 0.2 μm PVDF membranes (BioRad) and probed with primary antibodies diluted in Tris-buffered saline supplemented with 0.1% Tween 20 (Merck #S6996184 505) and 3% bovine serum albumin (Rockland #BSA-50).
Puromycin (12D10) (Merck #MABE343) and β-actin (Sigma Aldrich #A5441) antibodies were used as primary antibody. A HRP-conjugated secondary antibody (Rockland) was employed to detect immune-reactive bands using enhanced chemiluminescence (ECL Western Blotting Substrate, Pierce). Quantification of protein bands was done by densitometry using ImageJ software.
Percent increase of protein synthesis in unstressed cells (without Tg treatment) in the presence of media alone or certain test compounds is shown in Table 3 The percentage levels were normalized to the media alone condition, which correspond to 100% protein synthesis.
Percent recovery of protein synthesis in stressed cells (with Tg treatment) due to the test compounds at 100 nM or 1 μM is also shown in Table 3. The levels were normalized to the media alone and to Tg alone conditions, which correspond to 100% and 0% respectively.

[2] = Homo sapiens, HEK-293T, 3 h, 100 nM test compound, 100 nM thapsigargin, 3 hours, HEK293T ATF4 luciferase reporter
[3] = Homo sapiens, HEK-293T, 3 h, 100 nM thapsigargin, 3 hours, HEK293T ATF4 luciferase reporter
[4] = Homo sapiens, HEK-293T, 3 h, 1 μM test compound, 100 nM thapsigargin, 3 hours, HEK293T ATF4 luciferase reporter
[5] = 2 h, unstressed CHO cells, 1 μM, 2 hours, read-out: % Protein synthesis in unstressed cells (1 μM test compound)
[6] = CHO cells stressed with 300 nM Tg, 1 μM compound, Tg alone = 0%, read-out: % Recovery of protein expression (1 μM test compound)
[7] = CHO cells stressed with 300 nM Tg, Tg alone = 0%

| IC50 (ATF4; [3]) | SMILES | inhibition at 0.1 µM (ATF4; [2]) | inhibition at 1 µM (ATF4; [4]) | also measured |
| --- | --- | --- | --- | --- |
| > 1 µM | O=C(COc1ccc(Cl)c(F)c1)NC1CCN(NCC(O)COc2ccc(Cl)c(F)c2)CC1 (centres unmarked) [Compound 7, 2-(4-chloro-3-fluorophenoxy)-N-(1-((3-(4-chloro-3-fluorophenoxy)-2-hydroxypropyl)amino)piperidin-4-yl)acetamide] | 16.1% | 13.9% |  |
| < 0.1 µM | O=C(COc1ccc(Cl)c(F)c1)NC1CCN(NC(=O)c2nc3cc(Cl)ccc3s2)CC1 [Compound 9, 5-chloro-N-(4-(2-(4-chloro-3-fluorophenoxy)acetamido)piperidin-1-yl)benzo[d]thiazole-2-carboxamide] | 77.1% | 86.8% |  |
| < 0.1 µM | O=C(COc1ccc(Cl)c(F)c1)NN1CCC(NC(=O)c2nc3cc(Cl)ccc3s2)CC1 [Compound 10, 5-chloro-N-(1-(2-(4-chloro-3-fluorophenoxy)acetamido)piperidin-4-yl)benzo[d]thiazole-2-carboxamide] | 68.2% | 87.2% |  |
| < 0.1 µM | O=C(COc1ccc(Cl)c(F)c1)NC1CCN(NC(=O)C2Cc3cc(Cl)ccc3O2)CC1 (centres unmarked) [Compound 11, 5-chloro-N-(4-(2-(4-chloro-3-fluorophenoxy)acetamido)piperidin-1-yl)-2,3-dihydrobenzofuran-2-carboxamide] | 67.8% | 90.5% |  |
| < 0.1 µM | O=C(COc1ccc(Cl)c(F)c1)NN1CCC(NC(=O)C2Cc3cc(Cl)ccc3O2)CC1 (centres unmarked) [Compound 12, 5-chloro-N-(1-(2-(4-chloro-3-fluorophenoxy)acetamido)piperidin-4-yl)-2,3-dihydrobenzofuran-2-carboxamide] | 69.4% | 88.5% |  |
|  | O=C(NN1CCN(CC(O)COc2ccc(Cl)c(F)c2)CC1)C1Cc2cc(Cl)ccc2O1 (centres unmarked) [Compound 13, 5-chloro-N-(4-(3-(4-chloro-3-fluorophenoxy)-2-hydroxypropyl)piperazin-1-yl)-2,3-dihydrobenzofuran-2-carboxamide] |  |  | % ATF4 inhibition at 100 nM (ATF4; 100 nM test compound, 100 nM thapsigargin, 3 hours, HEK293T ATF4 luciferase reporter): 60.7%; IC50 (ATF4; 100 nM thapsigargin, 3 hours, HEK293T ATF4 luciferase reporter): < 0.1 µM; % ATF4 inhibition at 1 μM (ATF4; 1 μM test compound, 100 nM thapsigargin, 3 hours, HEK293T ATF4 luciferase reporter): 86.7% |
| > 1 µM | O=C(NC1CCN(NCC(O)COc2ccc(Cl)c(F)c2)CC1)c1ccc2cc(Cl)ccc2n1 (centres unmarked) [Compound 25, 6-chloro-N-(1-((3-(4-chloro-3-fluorophenoxy)-2-hydroxypropyl)amino)piperidin-4-yl)quinoline-2-carboxamide] | 8.1% | 8.5% |  |
|  | O=C(NC1CCN(NCC(O)COc2ccc(Cl)c(F)c2)CC1)c1cc2cc(Cl)ccc2o1 (centres unmarked) [Compound 26, 5-chloro-N-(1-((3-(4-chloro-3-fluorophenoxy)-2-hydroxypropyl)amino)piperidin-4-yl)benzofuran-2-carboxamide] | 37.5% | 49.4% |  |
| < 0.1 µM | O=C(COc1ccc(C(F)(F)F)cc1)NC1CCN(NC(=O)COc2ccc(C(F)(F)F)cc2)CC1 [Compound 35, N,N′-(piperidine-1,4-diyl)bis(2-(4-(trifluoromethyl)phenoxy)acetamide)] | 92.1% | 91.6% |  |
|  | O=C(COc1ccc(Cl)c([N+](=O)[O-])c1)NC1CCN(NC(=O)COc2ccc(Cl)c(F)c2)CC1 [Compound 39, 2-(4-chloro-3-fluorophenoxy)-N-(4-(2-(4-chloro-3-nitrophenoxy)acetamido)piperidin-1-yl)acetamide] |  |  | inhibition at 0.1 µM (ATF4; Homo sapiens, HEK-293T, 3 h): 91%; inhibition at 1 µM (ATF4; Homo sapiens, HEK-293T, 3 h): 91.5%; IC50 (ATF4; Homo sapiens, HEK-293T, 3 h): < 0.1 µM |
| > 1 µM | O=C(NC1CCN(NCC(O)COc2ccc(Cl)c(F)c2)CC1)C1Cc2cc(Cl)ccc2O1 (centres unmarked) [Compound 70, 5-chloro-N-(1-((3-(4-chloro-3-fluorophenoxy)-2-hydroxypropyl)amino)piperidin-4-yl)-2,3-dihydrobenzofuran-2-carboxamide] | 0.4% | 21.4% |  |
|  | O=C(NN1CCN(CC(O)COc2ccc(C(F)(F)F)cc2)CC1)c1ccc2cc(Cl)ccc2n1 (centres unmarked) [Compound 71, 6-chloro-N-(4-(2-hydroxy-3-(4-(trifluoromethyl)phenoxy)propyl)piperazin-1-yl)quinoline-2-carboxamide] |  |  | inhibition at 0.1 µM (ATF4; Homo sapiens, HEK-293T, 3 h): 83.4%; inhibition at 1 µM (ATF4; Homo sapiens, HEK-293T, 3 h): 89.9%; IC50 (ATF4; Homo sapiens, HEK-293T, 3 h): < 0.1 µM |

| SMILES | IC50 (ATF4; [3]) | inhibition at 0.1 µM (ATF4; [2]) | inhibition at 1 µM (ATF4; [4]) | also measured |
| --- | --- | --- | --- | --- |
| O=C(COc1ccc(Cl)c(F)c1)NN1CCN(C[C@@H](O)COc2ccc(Cl)c(F)c2)CC1 (single isomer, unassigned) [Compound 50] | 0.00193 µM | 97.2% | 100% | activity at 1 µM [1, 5]: 96.8%; activity at 1 µM [1, 6]: 7.4% |
| O=C(COc1ccc(Cl)c(F)c1)NN1CCN(C[C@H](O)COc2ccc(Cl)c(F)c2)CC1 (single isomer, unassigned) [Compound 51] | 0.0198 µM | 79.3% | 100% | activity at 1 µM [1, 5]: 110%; activity at 1 µM [1, 6]: 22.1% |
| O=C(COc1ccc(Cl)c(F)c1)NN1CCC(NC[C@@H](O)COc2ccc(Cl)c(F)c2)CC1 (single isomer, unassigned) [Compound 52] | 0.0269 µM | 75.3% | 81.2% | activity at 1 µM [1, 5]: 113%; activity at 1 µM [1, 6]: 75.8% |
| O=C(COc1ccc(Cl)c(F)c1)NC1CCN(NC(=O)c2ccc3cc(Cl)ccc3n2)CC1 [Compound 1, 6-chloro-N-(4-(2-(4-chloro-3-fluorophenoxy)acetamido)piperidin-1-yl)quinoline-2-carboxamide] | 0.0036 µM | 93.7% | 97.9% | % Recovery of protein expression (100 nM test compound) [1, 7]: 88.6%; activity at 1 µM [1, 5]: 112%; activity at 1 µM [1, 6]: 218% |
| O=C(COc1ccc(Cl)c(F)c1)NC1CCN(NC(=O)c2cc3cc(Cl)ccc3o2)CC1 [Compound 2, 5-chloro-N-(4-(2-(4-chloro-3-fluorophenoxy)acetamido)piperidin-1-yl)benzofuran-2-carboxamide] | 0.0184 µM | 87.1% | 97.6% | % Recovery of protein expression (100 nM test compound) [1, 7]: 40.2%; activity at 1 µM [1, 5]: 87.5%; activity at 1 µM [1, 6]: 123% |
